Assay results as given in patent US12138320B2, “Composition and methods for tumor imaging and treatment” (The University of Chicago, priority 2020, dated 2024).

Assays:
[1] = tested on: PC3 prostate cancer xenografts; test: PET/CT imaging and ex vivo biodistribution in mice bearing PC3 xenografts; set-up: species or system mouse; conditions: ex vivo quantitation, 3 hours after injection, prostate cancer model
From the text: FIGS. 12A-12C: In vivo prostate cancer tumor images with fluorine-18-labeled 2-isopropylphenyl-(4-(2-fluorethoxy)phenethyl)carbamate ([^18F]JW199) tracer. FIG. 12A is a representative whole-body positron emission tomography-computed tomography (PET-CT) image of a PC3 prostate cancer cell tumor-bearing mouse and tumor boundary image in inset. Image is representative of n=4 mice. B. FIG. 12B is a graph showing the ex vivo biodistribution of [^18F]JW199 in mice bearing PC3 xenografts. Quantification of radiotracer signal in the indicated tissues 3 hours after injection of 150 microcurie (μCi) of radiotracer. Data are means percentage injected dose per cubic centimeter (% ID/cc)±standard deviation (SD) (n=4 male mice). FIG. 12C is a graph of the glyceraldehyde-3-phosphate dehydrogenase (GAPDH)-normalized neutral cholesterol ester hydrolase 1 (NCEH1) protein levels in the edge (red) and inside (blue) areas of tumor xenografts, ***p<0.001 as determined by Student's t-test. […]
In vivo microPET/CT imaging: All imaging was performed by the Integrated Small Animal Imaging Research Resource (iSAIRR) at the University of Chicago (Chicago, Illinois, United States of America) on a β-Cube and X-Cube (Molecubes NV, Ghent, Belgium). […] Respiration rate and body temperature of the animal were constantly monitored during the entire scanning period with the p-Cube and X-Cube onboard monitoring system. […]

NCEH1 = biological target: T1, NCEH1 (Mus musculus, UniProt Q8BLF1); test: In vivo microPET/CT imaging and ex vivo biodistribution in nude mice
T1 construct: For murine proteomes, mouse tissues were Dounce-homogenized on ice in cold PBS; from tissue; host or cells: athymic nude mice: heart, kidney, lung, liver, brain, spleen and other organs
T1 sequence (Q8BLF1 1-408): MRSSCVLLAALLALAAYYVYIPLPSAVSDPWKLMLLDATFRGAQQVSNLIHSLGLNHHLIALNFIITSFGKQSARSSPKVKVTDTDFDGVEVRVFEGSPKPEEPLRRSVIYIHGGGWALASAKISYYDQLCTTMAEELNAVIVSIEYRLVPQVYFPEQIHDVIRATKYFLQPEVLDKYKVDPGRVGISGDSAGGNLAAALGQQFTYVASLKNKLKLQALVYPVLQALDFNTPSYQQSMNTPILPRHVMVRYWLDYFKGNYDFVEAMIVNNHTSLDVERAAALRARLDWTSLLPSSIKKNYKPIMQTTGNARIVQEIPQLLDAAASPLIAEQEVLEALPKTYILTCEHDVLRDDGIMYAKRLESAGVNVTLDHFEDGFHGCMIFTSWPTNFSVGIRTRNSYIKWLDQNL
Description: In vivo microPET/CT imaging: All imaging was performed by the Integrated Small Animal Imaging Research Resource (iSAIRR) at the University of Chicago (Chicago, Illinois, United States of America) on a β-Cube and X-Cube (Molecubes NV, Ghent, Belgium). […] MicroCT images were acquired using the general purpose protocol, with energy of 50 KeV and a tube current of 100 μA. Respiration rate and body temperature of the animal were constantly monitored during the entire scanning period with the p-Cube and X-Cube onboard monitoring system. A 1 hr dynamic PET acquisition was started 2 hours after [^18F]JW199 injection. Dynamic reconstruction was performed for 6 frames of 10 minutes each using a three-dimensional (3D) OSEM algorithm with 400 μm isometric voxel size. For competition studies, mice were pretreated with either 80 mg/kg JW480 or vehicle (polyethylene glycol 300 (PEG300)) via oral gavage, followed 4 hours later by dosing with [^18F]JW199 and imaging as described. For the MDA-MB231 study, [^18F]JW199 injection was followed immediately by dynamic PET acquisition (90 min) and microCT scanning as detailed above. Dynamic PET image reconstruction included 9 frames of 10 minutes each.
Dynamic reconstruction was performed using a three-dimensional OSEM algorithm with 400 μm isometric voxel size. All image analysis was performed with software sold under the tradename VivoQuant™ (inviCRO, LLC, Boston, Massachusetts, United States of America). 3D regions of interest (ROIs) were drawn and standardized uptake values (SUVs) and percent injected dose per cubic centimeter of tissue (% ID/cc) were calculated for each ROI and time point. % ID/cc was calculated as a ratio of tissue radioactivity concentration (mCi/g) at time of scan to total injected activity (millicurie (mCi)) at time of scan.
Ex vivo Biodistribution: All animals were sacrificed at 3 hours post [^18F]JW199 injection and organs and tumors were immediately harvested. All tissues were weighed, and radioactivity was counted using a Cobra II […] (PerkinElmer, Waltham, Massachusetts, United States of America) calibrated for [^18F] energy. The concentration of radioactivity in tumor, organs, and tissues was determined as percentage of injected dose per cubic centimeter of tissue (% ID/cc).

Structure (SMILES): CC(C)c1ccccc1OC(=O)NCCc1ccc(OCC[18F])cc1 [[^18F]JW199, fluorine-18-labeled 2-isopropylphenyl-(4-(2-fluoroethoxy)phenethyl)carbamate]
- total radioactivity in bulk tumor tissue relative to surrounding muscle [1]: higher total radioactivity
- PET signal kinetics in target organs (NCEH1; during the entire imaging procedure): quickly reached and maintained constant levels
- PET signal in the brain (NCEH1; i.v.): low PET signal
- CNS penetration (NCEH1; i.v., inferred from brain PET signal): low CNS penetration
- uptake in adipose depots, liver and bone (NCEH1; i.v., tissues with low Nceh1 mRNA levels): relatively low uptake
- PET signal accumulation in kidney, heart and lung (NCEH1; i.v., ~100 μCi, tissues with relatively high Nceh1 expression): Significant signal accumulation
- accumulation in mouse tissues (NCEH1; mouse, in vivo): rapid, NCEH1-dependent accumulation
